The target of data set [1] is neuronal nicotinic receptors. Kind of data set: Displacement of [3H]-MCC or [3H]-cytisine from neuronal nicotinic receptors, whole rat brain membranes. The class given is binding. The settings on record: Table 1, read-out: Nicotinic Receptor Ki. The protocol: Binding of [^3 H]-methylcarbamylcholine ([^3 H]-MCC) or [^3 H]-cytisine ([^3 H]-CYT) to nicotinic receptors was accomplished using crude synaptic membrane preparations from whole rat brain (Snyder and Enna, Brain Research, 1975, 100:81). Washed membranes were stored at -80° C. prior to use. Frozen aliquots were slowly thawed and resuspended in 20 volumes of buffer (containing: 120 mM NaCl, 5 mM KCl, 2 mM MgCl2, 2 mM CaCl2 and 50 mM Tris-Cl, pH 7.4 @4° C). After centrifuging at 20,000 X g for 15 minutes, the pellets were resuspended in 30 volumes of buffer. Homogenate (containing 125-150 μg protein) was added to triplicate tubes containing concentrations of test compound and [^3 H]-MCC (3 nM) in a final volume of 500 μL. Samples were incubated for 60 minutes at 4° C., then rapidly filtered through Whatman GF/B filters presoaked in 0.5% polyethylimine using 3×4 mL of ice-cold buffer. Alternately, homogenate and test compound were incubated for 75 min with [^3 H]-CYT (1.3 nM), then rapidly filtered, as described above. The filters are counted in 4 mL of Ecolume® (ICN). […] IC50 values were determined with the ALLFIT nonlinear least squares curve-fitting program and IC50 values were converted to Ki values using the Cheng and Prusoff correction (Ki =IC50 /(1+[ligand]/Kd of ligand)). Alternately, data were expressed as a percentage of the total specific binding.

For the next data set, the system named is ethanol-induced narcosis. The class given is in vivo, male CD1 mice. The source says:
It is known that administration of ethanol to mice induces a state of narcosis in the animals. […] It is also known that certain compounds can modify the narcotic effect of ethanol in this model.
Animals: Male CD1 mice (Charles-River Co., Portage, Mich.) weighing 25-30 g were used in the experiments. Upon arrival they were caged in groups of 14 and allowed to acclimatize to laboratory conditions for one week before the beginning of the studies. They were fed standard rodent diet with food and water ad libitum.
Duration of sleep time: Mice received intraperitoneal (i.p.) injections of ethanol and either saline or one of the drug treatments. Upon loss of the righting reflex, a timer was started to record the duration of the sleep time until the reflex was recovered. Two types of experiments were conducted to study the effect of drugs before (pre-treatment) or after (post-treatment) the injection of the narcotic dose of ethanol. In the pre-treatment experiments the drugs were injected i.p., 15 minutes before ethanol. In the post-treatment experiments the drugs were administered i.p., 1 minute after the animals lost the righting reflex, which was approximately 5 minutes after administration of ethanol.
Drugs: Ethanol was prepared as a 20% v/v (16% w/v) solution in saline. Based on previous studies, a dose of 87 mmol/kg (4 g/kg) was selected as the narcotic dose. RO 15-4513, the benzodiazepine receptor inverse agonist discussed in the Background section, was purchased from RBI (Natick, Mass.). It was dissolved in saline solution with Tween-80 and ultrasonically homogenized for 3 minutes. […] The compounds of Examples 2 and 4, both novel neuronal nicotinic receptor ligands according to the present invention, were also dissolved in saline to the desired concentrations.

The next data set deals with effects of ethanol. Conditions: rats; cited from earlier work.
Data set [2] relates to cholinergic receptors located in the heart and in cortical tissues. The settings on record: cited from earlier work.
The conditions of data set [3]: in vivo; cited from earlier work.
The mark [4] stands for this setting: post-treatment, i.p., p<0.05, one-tailed t test.

pKi: −log10 of the molar value. Entries after “also recorded” stand apart in the source; their conditions may differ. Counter-ions that a name gives are not always drawn. Like-named read-outs stand apart in the source and are kept apart here.

A word on the pKi: it is the Ki on a negative log10 scale, so that one unit is a factor of ten.

Consider `CCc1cc([C@@H]2CCCN2C)on1.O=C(O)C(=O)O` [Example 4, 3-Ethyl-5-(1-methyl-2(S)-pyrrolidinyl)-isoxazole oxalate salt], for which the pKi in data set [1] (oxalate salt) was 8.05. Also, the Sleeping time is 73 ± 12 % of controls with ethanol-induced narcosis (post-treatment, 0.062 μmol/kg i.p.); 61 ± 7 % of controls in the data set with ethanol-induced narcosis (post-treatment, 0.19 μmol/kg i.p.); 59 ± 8 % of controls in the data set on ethanol-induced narcosis (post-treatment, 0.62 μmol/kg i.p.). For the same molecule, the “effect of post-treatment on ethanol-induced narcosis” value in the data set on ethanol-induced narcosis (setting [4]) is “significantly reduced”.

Turning to `Cc1cc([C@@H]2C[C@@H](C)CN2C)on1` [Example 28d, trans-5-(1-methyl-4-methyl-2(S)-pyrrolidinyl)-3-methyl-isoxazole hydrochloride], in data set [1], the negative logarithm of the Ki (pKi) is 7.77.

Consider `COc1cc([C@@H]2CCCN2C)on1` [Example 29, 5-(1-methyl-2(S)-pyrrolidinyl-3-methoxy-isoxazole hydrochloride], for which the pKi in data set [1] was 7.21.

As to `CN1CCC[C@H]1c1cc(C(F)(F)F)no1` [Example 32, 3-trifluoromethyl-5-(1-methyl-2(S)-pyrrolidinyl)-isoxazole, hydrochloride], the negative-log Ki (pKi) in data set [1] is 8.21.

`Cc1noc([C@@H]2CCCN2C)c1Cc1ccccc1` [Example 36, 3-methyl-5-(1-methyl-2(S)-pyrrolidinyl)-4-(phenylmethyl-isoxazole hydrochloride]: in data set [1], the pKi is 7.11.

For the molecule `CCc1c(C)noc1[C@@H]1CCCN1C` [Example 37, 3-methyl-5-(1-methyl-2(S)-pyrrolidinyl)-4-ethyl-isoxazole hydrochloride], in data set [1], the pKi is 6.98.

In the case of `Cc1cc([C@H]2CCCCN2)on1` [Example 38, 3-methyl-5-(2(R)-piperidinyl)-isoxazole hydrochloride], in data set [1], the pKi was 6.41.

Turning to `Cc1cc([C@H]2CCCCN2C)on1` [Example 39, 3-methyl-5-(1-methyl-2(R)-piperidinyl)-isoxazole hydrochloride], in data set [1], the negative-log Ki (pKi) was 6.45.

`Cc1cc([C@@H]2CCCCN2)on1` [Example 40, 3-methyl-5-(2(S)-piperidinyl)-isoxazole hydrochloride]: the negative logarithm of the Ki (pKi) in data set [1] is 6.55.

Turning to `Cc1cc([C@@H]2CCN2C)on1` [Example 41, 3-methyl-5-(1-methyl-2(S)-azetidinyl)-isoxazole hydrochloride], the pKi in data set [1] was 8.60.

Take `Cc1cc([C@@H]2CCCN2C)n(-c2ccccc2)n1` [Example 42, 3-methyl-5-(1-methyl-2(S)-pyrrolidinyl)-1-phenyl-pyrazole hydrochloride]: the negative logarithm of the Ki (pKi) in data set [1] is 6.84.

`Cc1cc([C@@H]2CCCN2C)[nH]n1` [Example 43, 3-methyl-5-(1-methyl-2(S)-pyrrolidinyl)-pyrazole hydrochloride]: the pKi in data set [1] is 6.64.

On to `CCOC(=O)c1ncn2c1CN(C)C(=O)c1cc(N=[N+]=[N-])ccc1-2` [RO 15-4513], for which the Sleeping time is listed as 84 ± 14 % of controls in the data set on ethanol-induced narcosis (post-treatment, 1 μmol/kg i.p.); 165 ± 22 % of controls with ethanol-induced narcosis (post-treatment, 3 μmol/kg i.p., statistically significant); 118 ± 13 % of controls with ethanol-induced narcosis (post-treatment, 10 μmol/kg i.p.); 73 ± 11 % of controls in the data set with ethanol-induced narcosis (post-treatment, 30 μmol/kg i.p.); 101 ± 9 % of controls in the data set with ethanol-induced narcosis (pre-treatment, 1 μmol/kg i.p.); 107 ± 19 % of controls in the data set on ethanol-induced narcosis (pre-treatment, 3 μmol/kg i.p.). The Sleeping time in the data set with ethanol-induced narcosis (pre-treatment, 10 μmol/kg i.p.) is reported as 79 ± 6 % of controls; in the data set with ethanol-induced narcosis (pre-treatment, 30 μmol/kg i.p., statistically significant) it was 57 ± 14 % of controls. In addition, the “effect of post-treatment on ethanol-induced narcosis” value in the data set on ethanol-induced narcosis (setting [4]) was “significantly prolonged the narcotic effect of ethanol; also recorded: adversely potentiated the narcotic effect”. For the same molecule, in the data set on ethanol-induced narcosis (pre-treatment, i.p., p<0.05, one-tailed t test), the “effect of pre-treatment on ethanol sleeping time” value is listed as “significantly reduced the sleeping time of ethanol in mice”. In addition, the “antagonism of the effects of ethanol” value with effects of ethanol was “selectively antagonize the effects of ethanol in rats”.

Consider `CCN1C(=O)CC2(CCN(C)CC2)C1=O` [RS-86], for which, in data set [2] (cardiac), the “agonism at cardiac receptors” value is “full agonist”. Also, in data set [2] (cortical), the “agonism at cortical receptors” value is “partial agonist”.

`C[N+](C)(C)CCOC(N)=O` [carbachol]: the CNS penetration entry in data set [3] is on record as “poor CNS penetration”.

The values above are taken from patent US5409946A, “Isoxazole, isothiazole and pyrazole compounds that enhance cognitive function” (Abbott Laboratories, priority 1993, dated 1995).
